Measured values as given in publication PMC9499365, “Stereoselective Synthesis and Application of Gibberellic Acid-Derived Aminodiols” (International Journal of Molecular Sciences, 2022).

Assays:
[1] = system: HeLa cells (cervical cancer); assay: MTT antiproliferative assay, HeLa; format: cell-based, human; settings: Homo sapiens, 72 h, read-out: Growth inhibition (%) ± SEM
Method: (§1) The in vitro antiproliferative activities of the synthesized aminodiols 4–38 against a panel of different human cancer cell lines of gynecological origin, including cervical (SiHA and HeLa), breast (MCF7 and MDA-MB-231), and ovary (A2780) cancers were assayed by the MTT method. […] Cisplatin, a clinically applied anticancer agent, was used as a reference compound and the results are summarized in Figure 3 and Table S1 in Supporting Information. […] On the other hand, none of the prepared azole derivatives exerted relevant activity.
(§2) The growth-inhibitory effects of the gibberellic acid-based aminodiol derivatives were determined by a standard MTT (3-(4,5-dimethylthiazol-2-yl)-2,5-diphenyltetrazolium bromide) assay on a panel containing five cell lines, including Hela and Siha (cervical cancers); MDA-MB-231 and MCF-7 (breast cancers); and A2780 ovarian cancer cells. The most promising agents were additionally tested against NIH/3T3 mouse embryo fibroblast cells. All cell lines were purchased from the European Collection of Cell Cultures (Salisbury, UK) except SiHa, which was obtained from the American Tissue Culture Collection (Manassas, VA, USA). The cells were maintained in minimal essential medium supplemented with 10% fetal bovine serum, 1% non-essential amino acids, and 1% penicillin-streptomycin at 37 °C in a humidified atmosphere containing 5% CO2. All media and supplements were obtained from Lonza Group Ltd., (Basel, Switzerland). Cancer cells were seeded into 96-well plates (5000 cells/well), after an overnight incubation the test compound was added in 2 different concentrations (10 µM and 30 µM) and incubated for another 72 h under cell-culturing conditions. Then, 20 μL of 5 mg/mL MTT solution was added to each well and incubated for a further 4 h. The medium was removed, and the precipitated formazan crystals were dissolved in DMSO during 60 min of shaking at 37 °C. As the final step, the absorbance was measured at 545 nm by using a microplate reader (SPECTROStar Nano, BMG Labtech, Offenburg, Germany). Untreated cells were included as controls. […] These agents were additionally tested against NIH/3T3 fibroblasts to obtain results about their cancer selectivity. Two independent experiments were performed with five wells for each condition. Cisplatin (Ebewe GmbH, Unterach, Austria), a clinically used anticancer agent, was used as a positive control. Calculations were performed utilizing the GraphPad Prism 5.01 software (GraphPad Software Inc., San Diego, CA, USA).

[2] = system: MDA-MB-231 cells (breast cancer); assay: MTT antiproliferative assay, MDA-MB-231; format: cell-based, human; settings: Homo sapiens, 72 h, read-out: Growth inhibition (%) ± SEM; for inhibition at 10 µM: MDA-MB-231, 10 μM; for inhibition at 30 µM: MDA-MB-231, 30 μM
Method: as §1, §2

[3] = system: SiHa cells (cervical cancer); assay: MTT antiproliferative assay, SiHa; format: cell-based, human; settings: Homo sapiens, 72 h, read-out: Growth inhibition (%) ± SEM
Method: as §1, §2

[4] = system: A2780 ovarian cancer cells; assay: MTT antiproliferative assay, A2780; format: cell-based, human; settings: Homo sapiens, 72 h, read-out: Growth inhibition (%) ± SEM; for inhibition at 10 µM: A2780, 10 μM; for inhibition at 30 µM: A2780, 30 μM
Method: as §1, §2

Row | Compound | inhibition at 10 µM [1] [%] | inhibition at 30 µM [1] [%] | inhibition at 10 µM [2] [%] | inhibition at 30 µM [2] [%] | melting point [°C] | inhibition at 10 µM [3] [%] | inhibition at 30 µM [3] [%] | inhibition at 10 µM [4] [%] | inhibition at 30 µM [4] [%]
1 | CCOC(=O)[C@H]1c2c(C)cccc2[C@H]2CC[C@]3(O)C[C@@]21C[C@]3(O)CNCc1ccccc1 [Compound 4, Ethyl (4bS,7S,8S,9aR,10R)-8-((benzylamino)methyl)-7,8-dihydroxy-1-methyl-4b,6,7,8,9,10-hexahydro-5H-7,9a-methanobenzo[a]azulene-10-carboxylate] | 26.9 ± 1.55 | 25.9 ± 3.2 | < 20 | 31.6 ± 1.49 | 97 to 99 | 23.3 ± 0.63 | 57 ± 1.16 | < 20 | 49.9 ± 1.76
2 | CCOC(=O)[C@H]1c2c(C)cccc2[C@H]2CC[C@]3(O)C[C@@]21C[C@]3(O)CN[C@@H](C)c1ccccc1 [Compound 5, Ethyl (4bS,7S,8S,9aR,10R)-7,8-dihydroxy-1-methyl-8-((((S)-1-phenylethyl)amino)methyl)-4b,6,7,8,9,10-hexahydro-5H-7,9a-methanobenzo[a]azulene-10 carboxylate] | 22.3 ± 5.01 | 51 ± 9.48 | < 20 | 64.9 ± 1.91 |  | < 20 | 48.3 ± 4.04 | 30.42 ± 0.22 | 51.6 ± 2.69
3 | CCOC(=O)[C@H]1c2c(C)cccc2[C@H]2CC[C@]3(O)C[C@@]21C[C@]3(O)CN[C@H](C)c1ccccc1 [Compound 6, Ethyl (4bS,7S,8S,9aR,10R)-7,8-dihydroxy-1-methyl-8-((((R)-1-phenylethyl)amino)methyl)-4b,6,7,8,9,10-hexahydro-5H-7,9a-methanobenzo[a]azulene-10-carboxylate] | 21.4 ± 1.7 | 63.1 ± 1.81 | < 20 | 85.1 ± 1.38 | 104 to 105 | < 20 | 65.9 ± 2.48 | 25.3 ± 0.27 | 61.9 ± 1.25
4 | CCOC(=O)[C@H]1c2c(C)cccc2[C@H]2CC[C@]3(O)C[C@@]21C[C@]3(O)CN[C@H](CC)c1ccccc1 [Compound 7, Ethyl (4bS,7S,8S,9aR,10R)-7,8-dihydroxy-1-methyl-8-((((R)-1-phenylpropyl)amino)methyl)-4b,6,7,8,9,10-hexahydro-5H-7,9a-methanobenzo[a]azulene-10-carboxylate] | < 20 | 45 ± 0.97 | < 20 | 70.38 ± 0.07 | 55 to 57 | 28.9 ± 1.16 | 94.3 ± 1.48 | < 20 | 65 ± 2.44
5 | CCOC(=O)[C@H]1c2c(C)cccc2[C@H]2CC[C@]3(O)C[C@@]21C[C@]3(O)CN[C@@H](CC)c1ccccc1 [Compound 8, Ethyl (4bS,7S,8S,9aR,10R)-7,8-dihydroxy-1-methyl-8-((((S)-1-phenylpropyl)amino)methyl)-4b,6,7,8,9,10-hexahydro-5H-7,9a-methanobenzo[a]azulene-10-carboxylate] | 27.5 ± 0.41 | 98.05 ± 0.07 | < 20 | 97.52 ± 0.67 | 114 to 115 | 29.7 ± 1.54 | 98.38 ± 0.44 | 39.5 ± 1.27 | 96.38 ± 0.13
6 | CCOC(=O)[C@H]1c2c(C)cccc2[C@H]2CC[C@]3(O)C[C@@]21C[C@]3(O)CNCc1ccc(F)cc1 [Compound 9, Ethyl (4bS,7S,8S,9aR,10R)-8-(((4-fluorobenzyl)amino)methyl)-7,8-dihydroxy-1-methyl-4b,6,7,8,9,10-hexahydro-5H-7,9a-methanobenzo[a]azulene-10-carboxylate] | < 20 | 30.6 ± 4.19 | < 20 | < 20 | 253 to 254 | 26.6 ± 1.02 | 53.6 ± 1.92 | < 20 | 45.8 ± 1.62
7 | CCOC(=O)[C@H]1c2c(C)cccc2[C@H]2CC[C@]3(O)C[C@@]21C[C@]3(O)CN[C@@H](C)c1ccc(F)cc1 [Compound 10, Ethyl (4bS,7S,8S,9aR,10R)-8-((((S)-1-(4-fluorophenyl)ethyl)amino)methyl)-7,8-dihydroxy-1-methyl-4b,6,7,8,9,10-hexahydro-5H-7,9a-methanobenzo[a]azulene-10-carboxylate] | 38.5 ± 2.02 | 97.93 ± 0.11 | 31.2 ± 0.77 | 94.5 ± 1.05 | 84 to 86 | 39.1 ± 1.82 | 97.08 ± 0.08 | 22.2 ± 1.93 | 96.46 ± 0.76
8 | CCOC(=O)[C@H]1c2c(C)cccc2[C@H]2CC[C@]3(O)C[C@@]21C[C@]3(O)CNC(C)C [Compound 19, Ethyl (4bS,7S,8S,9aR,10R)-7,8-dihydroxy-8-((isopropylamino)methyl)-1-methyl-4b,6,7,8,9,10-hexahydro-5H-7,9a-methanobenzo[a]azulene-10-carboxylate] |  |  |  |  | 102 to 103 |  |  |  | 
9 | C#CCNC[C@@]1(O)C[C@]23C[C@@]1(O)CC[C@@H]2c1cccc(C)c1[C@@H]3C(=O)OCC [Compound 20, Ethyl (4bS,7S,8S,9aR,10R)-7,8-dihydroxy-1-methyl-8-((prop-2-yn-1-ylamino)methyl)-4b,6,7,8,9,10-hexahydro-5H-7,9a-methanobenzo[a]azulene-10-carboxylate] |  |  |  |  | 111 to 112 |  |  |  | 
10 | CCOC(=O)[C@H]1c2c(C)cccc2[C@H]2CC[C@]3(O)C[C@@]21C[C@]3(O)CN1CCCCC1 [Compound 21, Ethyl (4bS,7S,8S,9aR,10R)-7,8-dihydroxy-1-methyl-8-(piperidin-1-ylmethyl)-4b,6,7,8,9,10-hexahydro-5H-7,9a-methanobenzo[a]azulene-10-carboxylate] |  |  |  |  | 84 to 86 |  |  |  | 
11 | CCOC(=O)[C@H]1c2c(C)cccc2[C@H]2CC[C@]3(O)C[C@@]21C[C@]3(O)CN1CCN(C)CC1 [Compound 22, Ethyl (4bS,7S,8S,9aR,10R)-7,8-dihydroxy-1-methyl-8-((4-methylpiperazin-1-yl)methyl)-4b,6,7,8,9,10-hexahydro-5H-7,9a-methanobenzo[a]azulene-10-carboxylate] |  |  |  |  | 42 to 45 |  |  |  | 
12 | CCOC(=O)[C@H]1c2c(C)cccc2[C@H]2CC[C@]3(O)C[C@@]21C[C@]3(O)Cn1cncn1 [Compound 28, Ethyl (4bS,7S,8S,9aR,10R)-8-((1H-1,2,4-triazol-1-yl)methyl)-7,8-dihydroxy-1-methyl-4b,6,7,8,9,10-hexahydro-5H-7,9a-methanobenzo[a]azulene-10-carboxylate] |  |  |  |  | 87 to 89 |  |  |  | 
13 | CCOC(=O)[C@H]1c2c(C)cccc2[C@H]2CC[C@]3(O)C[C@@]21C[C@]3(O)Cn1ccnn1 [Compound 29, Ethyl (4bS,7S,8S,9aR,10R)-8-((1H-1,2,3-triazol-1-yl)methyl)-7,8-dihydroxy-1-methyl-4b,6,7,8,9,10-hexahydro-5H-7,9a-methanobenzo[a]azulene-10-carboxylate] |  |  |  |  | 90 to 92 |  |  |  | 
14 | CCOC(=O)[C@@H]1c2c(C)cccc2C2CC[C@]3(O)C[C@@]21C[C@]3(O)CN[C@@H](C)c1cccc2ccccc12 (stereo partly drawn) [Compound 36, Ethyl (7S,8S,9aR,10S)-7,8-dihydroxy-1-methyl-8-((((S)-1-(naphthalen-1-yl)ethyl)amino)methyl)-4b,6,7,8,9,10-hexahydro-5H-7,9a-methanobenzo[a]azulene-10-carboxylate] | 31.1 ± 2.01 | 95.4 ± 2.87 | 46.9 ± 1.05 | 95.53 ± 0.83 |  | 31.4 ± 1.21 | 97.69 ± 0.58 | 46.7 ± 1.46 | 94.81 ± 0.11
15 | CCOC(=O)[C@@H]1c2c(C)cccc2C2CC[C@]3(O)C[C@@]21C[C@]3(O)CN[C@H](C)c1cccc2ccccc12 (stereo partly drawn) [Compound 37, Ethyl (7S,8S,9aR,10S)-7,8-dihydroxy-1-methyl-8-((((R)-1-(naphthalen-1-yl)ethyl)amino)methyl)-4b,6,7,8,9,10-hexahydro-5H-7,9a-methanobenzo[a]azulene-10-carboxylate] | 35.8 ± 0.42 | 97.35 ± 0.69 | < 20 | 96.64 ± 0.17 |  | 34.5 ± 1.89 | 97.58 ± 0.47 | 35.9 ± 0.89 | 96 ± 0.99
